Where “and” joins values, the source holds several entries; their conditions need not be identical. Identical values can stand only once.
Assay: DTG steady-state plasma pharmacokinetics, interaction with TPV/r
Procedure: Two studies were conducted in healthy volunteer subjects as judged by physical exam, medical history and laboratory testing. These studies are registered with ClinicalTrials.gov (NCT01068925; protocol number ING113096 and NCT01098526; protocol number ING114005). Adult men and women of non-childbearing potential were enrolled. Subjects were excluded if they tested positive for HIV or hepatitis C antibodies or hepatitis B surface antigen. Subjects were not allowed to receive any prescription or non-prescription drugs, including vitamins or herbal products, within 7 days of dosing and throughout the study.
This was a phase I, open-label, single-sequence, three-period, steady-state study. Eighteen subjects received DTG 50 mg q24h for 5 days (period 1). […] There was no washout between treatment periods. All doses were administered with a moderate-fat meal.
Dolutegravir and EFV were measured in plasma samples using validated methods, which consisted of extraction from plasma by protein precipitation with acetonitrile containing [^15N^2H7]dolutegravir or [^2H4]-efavirenz as the internal standards, respectively. The plasma extracts were injected onto a 2.1 × 50 mm 3.5-micron XBridge™ C18 column (Waters Associates, Milford, MA, USA). Dolutegravir was eluted with a mobile phase consisting of 40 % acetonitrile in aqueous 0.1 % formic acid, and EFV was eluted with a mobile phase consisting of acetonitrile/0.1 % formic acid (65 % v/v) in a 5-mM ammonium acetate buffer containing 0.1 % acetic acid (35 % v/v). The eluates were detected by using a Sciex API 4000™ (AB Sciex, Framingham, MA, USA) equipped with a TurboIonSpray® ionisation source with multiple reaction monitoring (DTG positive ion mode m/z 420 > 277; internal standard m/z 428 > 277; EFV negative ion mode m/z 314 > 243; internal standard m/z 318 > 247). Data acquisition and processing were performed with Analyst 1.4.2 software (AB Sciex), and linear regression analysis calculations were performed using the Study Management System, SMS™ 2000 v.2.2 (GlaxoSmithKline, Research Triangle Park, NC, USA). The calibration range for DTG was 0.020 to 20 μg/mL and for EFV was 0.10 to 20 μg/mL. Quality control samples prepared separately at three concentrations were stored with study samples and analysed with each batch of samples against separately prepared calibration standards.
A non-compartmental PK analysis of the concentration-time data was performed with WinNonlin (version 5.2, Pharsight Corporation, Mountain View, CA, USA). Plasma PK parameters for both DTG and EFV were calculated using actual recorded times for each treatment. Parameters that were determined included AUC from time zero to the end of the dosage interval (AUC(0–τ)), maximum observed plasma concentration (C max), the time of maximum observed plasma concentration (T max) and plasma concentration at the end of the dosing interval (C τ).
Statistical analyses were performed on the log-transformed PK parameters: AUC(0–τ), C τ and C max. […] Efavirenz PK data were compared with historical data. Subject was fitted as a random effect and treatment was fitted as a fixed effect in the model. The ratio of geometric least-squares means and associated 90 % confidence intervals were estimated for the PK parameters of interest.

[1] = both, human, plasma, oral, 50 mg
[2] = co-administration with TPV/r 500/200 mg q12h

Compound: C[C@@H]1CCO[C@H]2Cn3cc(C(=O)NCc4ccc(F)cc4F)c(=O)c(O)c3C(=O)N12 [DTG, Dolutegravir]
- GLS mean ratio (90 % CI) of AUC(0–τ) (DTG+TPV/r vs DTG alone, n=14): 0.409 (0.379, 0.443)
- GLS mean ratio (90 % CI) of C max (DTG+TPV/r vs DTG alone, n=14): 0.535 (0.500, 0.572)
- GLS mean ratio (90 % CI) of C τ (DTG+TPV/r vs DTG alone, n=14): 0.239 (0.212, 0.270)
- Tmax (both, human, in vivo, 50 mg): 3 h
- AUC [1]: 64500 ng·h/mL
- Cmax [1]: 4530 ng/mL
- concentration at 24 h [1]: 1480 ng/mL
- decrease in plasma DTG AUC(0–τ) [2]: 59%
- decrease in plasma DTG C max [2]: 46%
- decrease in plasma DTG C τ [2]: 76% and 75%

From article PMC4158172 (European Journal of Clinical Pharmacology, 2014)
